# Results: ChEMBL document CHEMBL3102853, “Carbonic anhydrase inhibitors. Synthesis, and molecular structure of novel series N-substituted N'-(2-arylmethylthio-4-chloro-5-methylbenzenesulfonyl)guanidines and their inhibition of human cytosolic isozymes I and II and the transmembrane tumor-associated isozymes IX and XII” (Eur J Med Chem, 2014)
# What was measured:
# Format in all cases: functional
# [1] = test system: SK-MEL-2; assay: Cytotoxicity against human SK-MEL-2 cells
# [2] = test system: CCRF-CEM; assay: Cytotoxicity against human CCRF-CEM cells
# [3] = test system: A549; assay: Cytotoxicity against human A549 cells at 10 uM; conditions: read-out: GI
# [4] = test system: DU-145; assay: Cytotoxicity against human DU145 cells at 10 uM; conditions: read-out: GI
# [5] = test system: HL-60(TB); assay: Cytotoxicity against human HL-60(TB) cells at 10 uM; conditions: read-out: GI
# [6] = test system: SNB-75; assay: Cytotoxicity against human SNB75 cells at 10 uM; conditions: read-out: GI
# [7] = test system: SW-620; assay: Cytotoxicity against human SW620 cells at 10 uM; conditions: read-out: GI
# [8] = test system: SR; assay: Cytotoxicity against human SR cells at 10 uM; conditions: read-out: GI
# [9] = test system: HOP-92; assay: Cytotoxicity against human HOP92 cells
# [10] = test system: T47D; assay: Cytotoxicity against human T47D cells at 10 uM; conditions: read-out: GI
# [11] = test system: UACC-62; assay: Cytotoxicity against human UACC62 cells at 10 uM; conditions: read-out: GI
# [12] = test system: MOLT-4; assay: Cytotoxicity against human MOLT4 cells
# [13] = test system: HOP-92; assay: Cytotoxicity against human HOP92 cells at 10 uM; conditions: read-out: GI
# [14] = test system: SF-539; assay: Cytotoxicity against human SF539 cells
# [15] = test system: MDA-MB-468; assay: Cytotoxicity against human MDA-MB-468 cells
# [16] = test system: RPMI-8226; assay: Cytotoxicity against human RPMI8226 cells
# [17] = test system: K562; assay: Cytotoxicity against human K562 cells
# [18] = Cytotoxicity against human UACC257 cells
# [19] = test system: OVCAR-3; assay: Cytotoxicity against human OVCAR3 cells at 10 uM; conditions: read-out: GI
# [20] = test system: NCI-H522; assay: Cytotoxicity against human NCI-H522 cells
# [21] = test system: HL-60(TB); assay: Cytotoxicity against human HL-60(TB) cells
# [22] = test system: NCI-H460; assay: Cytotoxicity against human NCI-H460 cells at 10 uM; conditions: read-out: GI
# [23] = test system: HCC 2998; assay: Cytotoxicity against human HCC2998 cells
# [24] = test system: Malme-3M; assay: Cytotoxicity against human MALME-3M cells
# [25] = test system: T47D; assay: Cytotoxicity against human T47D cells
# [26] = test system: UACC-62; assay: Cytotoxicity against human UACC62 cells
# [27] = test system: KM12; assay: Cytotoxicity against human KM12 cells at 10 uM; conditions: read-out: GI
# [28] = test system: MDA-MB-468; assay: Cytotoxicity against human MDA-MB-468 cells at 10 uM; conditions: read-out: GI
# [29] = Cytotoxicity against human OVCAR4 cells
# [30] = Cytotoxicity against human NCI-ADR-RES cells at 10 uM; conditions: read-out: GI
# [31] = test system: LOX IMVI; assay: Cytotoxicity against human LOXIMVI cells
# [32] = test system: RPMI-8226; assay: Cytotoxicity against human RPMI8226 cells at 10 uM; conditions: read-out: GI
# [33] = test system: A498; assay: Cytotoxicity against human A498 cells at 10 uM; conditions: read-out: GI
# [34] = read-out: LC50 (the source's name)
smiles,measurement,setting,value
Cc1cc(S(=O)(=O)NC(=N)NCc2ccc(S(N)(=O)=O)cc2)c(SCc2ccc(C(F)(F)F)cc2)cc1Cl,GI50,[1],2.5 µM
same,TGI,[1],6.2 µM
same,CC50,[1]; [34],22.2 µM
same,GI50,[2],3.5 µM
same,TGI,[2],13.4 µM
same,CC50,[2]; [34],85.3 µM
same,inhibition of growth at 10 µM,[3],60%
same,inhibition of growth at 10 µM,[4],57%
same,inhibition of growth at 10 µM,[5],83%
same,inhibition of growth at 10 µM,[6],68%
same,inhibition of growth at 10 µM,[7],68%
same,inhibition of growth at 10 µM,[8],17%
same,GI50,[9],2.9 µM
same,TGI,[9],8.3 µM
same,CC50,[9]; [34],32.4 µM
same,inhibition of growth at 10 µM,[10],30%
same,inhibition of growth at 10 µM,[11],59%
same,GI50,[12],3 µM
same,TGI,[12],10.5 µM
same,CC50,[12]; [34],> 100 µM
same,inhibition of growth at 10 µM,[13],89%
same,GI50,[14],5.2 µM
same,TGI,[14],17.9 µM
same,CC50,[14]; [34],44.8 µM
same,GI50,[15],2.9 µM
same,TGI,[15],13.8 µM
same,CC50,[15]; [34],66.4 µM
same,GI50,[16],2.8 µM
same,TGI,[16],9.1 µM
same,CC50,[16]; [34],98.6 µM
same,GI50,[17],3.7 µM
same,TGI,[17],25.3 µM
same,CC50,[17]; [34],> 100 µM
same,GI50,[18]; UACC-257,3.7 µM
same,TGI,[18]; UACC-257,14.7 µM
same,CC50,"[18]; UACC-257, read-out: LC50 (the source's name)",39.4 µM
same,inhibition of growth at 10 µM,[19],1%
same,GI50,[20],4.6 µM
same,TGI,[20],16.8 µM
same,CC50,[20]; [34],42.3 µM
same,GI50,[21],2.4 µM
same,TGI,[21],6.4 µM
same,CC50,[21]; [34],54.4 µM
same,inhibition of growth at 10 µM,[22],53%
same,GI50,[23],3.1 µM
same,TGI,[23],10.4 µM
same,CC50,[23]; [34],41.7 µM
same,GI50,[24],3.8 µM
same,TGI,[24],16.3 µM
same,CC50,[24]; [34],49.5 µM
same,GI50,[25],4.7 µM
same,TGI,[25],20.7 µM
same,CC50,[25]; [34],84.4 µM
same,GI50,[26],2.6 µM
same,TGI,[26],9.1 µM
same,CC50,[26]; [34],32 µM
same,inhibition of growth at 10 µM,[27],89%
same,inhibition of growth at 10 µM,[28],37%
same,GI50,[29]; OVCAR-4,4.2 µM
same,TGI,[29]; OVCAR-4,20.3 µM
same,CC50,"[29]; OVCAR-4, read-out: LC50 (the source's name)",75.9 µM
same,inhibition of growth at 10 µM,[30],64%
same,GI50,[31],6.1 µM
same,TGI,[31],20.5 µM
same,CC50,[31]; [34],54.3 µM
same,inhibition of growth at 10 µM,[32],58%
same,inhibition of growth at 10 µM,[33],63%
